Where two headings read alike, the source gives them in different places.
Key:
M2 MspA = M2 MspA (Mycolicibacterium smegmatis, UniProt A0QR29, D117N/D118N/D120N/D145R/D161R/E166K); test: NMP sensing performed with M2 MspA (control without PBA); format: binding, Mycobacterium smegmatis; settings: NMP 1 mM in cis, +200 mV
Description: FIG. 44: NMP sensing performed with M2 MspA. (a-d) Representative traces of (a) CMP, (b) UMP, (c) AMP, (d) GMP sensing performed with M2 MspA. All measurements were carried out as described in Methods in Example 2 in a 1.5 M KCl buffer (1.5 M KCl, 10 mM MOPS, pH 7.0). A +200 mV bias was continually applied. NMPs were added to cis with a final concentration of 1 mM for each analyte.
(§1) NMPs consist of a ribose, a phosphate group and a nucleobase, serving as monomeric units of RNA. […] Experimentally, single channel recording was performed using MspA-PBA in a 1.5 M KCl buffer (1.5 M KCl, 10 mM MOPS, pH 7.0) (Methods in Example 2). A transmembrane potential of +200 mV was continually applied. Four canonical NMPs, adenine mononucleotide (AMP), guanine mononucleotide (GMP), cytosine mononucleotide (CMP) and uracil mononucleotide (UMP) were tested as analytes (FIG. 33d). Either type of NMP was added to cis at a final concentration of 300 μM. Subsequently, successive resistive pulses caused by either type of NMP were immediately observed (FIG. 33d). However, no events were observed when M2 MspA was tested, confirming that the PBA located at the pore constriction is critical in the generation of NMP sensing events (FIG. 44). At this condition, ˜1800 events/h were obtained from each pore. The pore could normally withstand a few hours of continuous measurement. Deoxyribonucleoside monophosphate (dNMP) fails to report any event when sensed by MspA-PBA (FIG. 45). This is expected because dNMPs have no cis-diol structure and can't form the boronate ester which is necessary for sensing. The molecular mechanism of sensing which results from reversible covalent bond formation between an NMP and the PBA at the pore constriction is thus confirmed.

[1] = biological target: T1, MspA-PBA (phenylboronic acid modified hetero-octameric (N90C)1(M2)7 MspA) (Mycolicibacterium smegmatis, UniProt A0QR29, D117C/D118N/D120N/D145R/D161R/E166K); format: binding, Mycobacterium smegmatis; settings: for % Ib (percentage blockage) / S.D. (noise amplitude of blockage level) / τoff (mean dwell time) / τon (mean inter-event interval): N=3; for Calibration coefficient δ (NMP binding events per unit concentration per min): sole NMP 300 μM in cis
T1 construct: H6 (hexa-histidine) (C); 3-(maleimide) phenylboronic acid (MPBA) adduct on the thiol of Cys90; made in house; host or cells: E. coli BL21 (DE3) pLysS, co-expression from pETDuet-1
Description: FIG. 46: Definition of event parameters. […] The measurement was carried out as described in Methods in Example 2. The chambers were filled with a 1.5 M KCl buffer (1.5 M KCl, 10 mM MOPS, pH 7.0). A transmembrane potential of +200 mV was continually applied. AMP was added to cis with a final concentration of 300 μM. The open pore current (Ip), the residual current (Ib), the dwell time (τoff) and the inter-event duration (τon) are defined as marked on the trace. The percentage blockage (% Ib) is defined as (Ip−Ib)/Ip. The noise amplitude (S.D.) is defined as the standard deviation of the blockage level.
as §1
To describe NMP sensing events quantitatively, the event dwell time (τoff), the inter-event interval (τon), the percentage blockage (% Ib=(Ip−Ib)/Ip) and the noise amplitude (S.D.) were derived as described in FIG. 46. Generally, the histograms of τoff and τon show an exponential distribution, and could be fitted to derive the mean time constants τoff or τon, respectively. The histograms of % Ib and S.D. show a Gaussian distribution, which could be fitted to derive the mean percentage blockage % Ib and S.D., respectively. During NMP sensing, by varying the NMP concentrations in cis, the reciprocal of dwell time (1/τoff) remains constant, consistent with a unimolecular dissociation mechanism. Whereas the reciprocal of the inter-event interval (1/τon) linearly correlates with the NMP concentration in cis (Tables 8-11, FIG. 47-50), consistent with a bimolecular model. The dependence of the applied voltage during NMP sensing was investigated using AMP as a representative analyte. […] This is expected because in a pH 7.0 buffer, the phosphate group of NMP is negatively charged and the electrophoretic force applied on the NMP analyte can strongly regulate the rate of event appearance and the event dwell time.

[2] = NMP 100 μM in cis, +200 mV, three independent measurements
[3] = NMP 200 μM in cis, +200 mV, three independent measurements
[4] = NMP 300 μM in cis, +200 mV, three independent measurements
[5] = NMP 400 μM in cis, +200 mV, three independent measurements
[6] = NMP 500 μM in cis, +200 mV, three independent measurements
[7] = +200 mV, three independent measurements
[8] = voltage series: +40 mV, AMP 500 μM in cis
[9] = voltage series: +80 mV, AMP 500 μM in cis
[10] = voltage series: +120 mV, AMP 500 μM in cis
[11] = voltage series: +160 mV, AMP 500 μM in cis
[12] = voltage series: +200 mV, AMP 500 μM in cis

Sequence of M2 MspA (A0QR29 28-211 D117N/D118N/D120N/D145R/D161R/E166K): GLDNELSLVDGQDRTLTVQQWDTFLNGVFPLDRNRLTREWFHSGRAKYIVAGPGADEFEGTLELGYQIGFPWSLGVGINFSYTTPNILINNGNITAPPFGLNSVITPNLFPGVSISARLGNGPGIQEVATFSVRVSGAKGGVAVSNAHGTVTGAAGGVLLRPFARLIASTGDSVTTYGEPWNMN

SMILES	binding events with M2 MspA (M2 MspA)	1/τoff [1, 2]	1/τon [1, 2]	1/τoff [1, 3]	1/τon [1, 3]	% Ib (percentage blockage) ([1]; NMP 300 μM in cis, +200 mV)	S.D. (noise amplitude of blockage level) ([1]; NMP 300 μM in cis, +200 mV)	τoff (mean dwell time) ([1]; NMP 300 μM in cis, +200 mV)	τon (mean inter-event interval) ([1]; NMP 300 μM in cis, +200 mV)	1/τoff [1, 4]	1/τon [1, 4]	1/τoff [1, 5]	1/τon [1, 5]	1/τoff [1, 6]	1/τon [1, 6]	Calibration coefficient δ (NMP binding events per unit concentration per min) [1, 7]	further results
Nc1ncnc2c1ncn2[C@@H]1O[C@H](COP(=O)(O)O)[C@@H](O)[C@H]1O [AMP, adenosine-5′-monophosphate]	No binding events were observed	14.9 ± 0.5 s⁻¹	0.54 ± 0.11 s⁻¹	15.1 ± 0.2 s⁻¹	0.82 ± 0.05 s⁻¹	10.89±0.14%	3.14 ± 0.14 pA	72.76 ± 2.07 ms	979.5 ± 106.1 ms	13.8 ± 0.4 s⁻¹	1.03 ± 0.11 s⁻¹	14.6 ± 1.1 s⁻¹	1.19 ± 0.08 s⁻¹	14.4 ± 1.8 s⁻¹	1.39 ± 0.07 s⁻¹	0.21 ± 0.02 µM⁻¹ min⁻¹	% Ib (percentage blockage) ([1]; NMP 300 μM in cis, +200 mV, listed as A): 10.89 ± 0.14%; sensing events with MspA-PBA ([1]; analyte 1 mM in cis, +200 mV): Successive appearance of AMP sensing events was observed; 1/τoff [1, 8]: 30.5 ± 1.7 s⁻¹; 1/τon [1, 8]: 0.45 ± 0.03 s⁻¹; 1/τoff [1, 9]: 27.6 ± 1.9 s⁻¹; 1/τon [1, 9]: 0.71 ± 0.12 s⁻¹; 1/τoff [1, 10]: 24.2 ± 2.1 s⁻¹; 1/τon [1, 10]: 1.13 ± 0.08 s⁻¹; 1/τoff [1, 11]: 18.0 ± 1.4 s⁻¹; 1/τon [1, 11]: 1.23 ± 0.11 s⁻¹; 1/τoff [1, 12]: 14.5 ± 1.8 s⁻¹; 1/τon [1, 12]: 1.38 ± 0.08 s⁻¹
Nc1ccn([C@@H]2O[C@H](COP(=O)(O)O)[C@@H](O)[C@H]2O)c(=O)n1 [CMP, Cytidine-5′-monophosphate]	No binding events were observed	19.0 ± 1.9 s⁻¹	0.30 ± 0.06 s⁻¹	20.9 ± 0.3 s⁻¹	0.47 ± 0.05 s⁻¹	7.1±0.2%	3.23 ± 0.09 pA	47.6 ± 0.9 ms	1511.6 ± 108.3 ms	21.0 ± 0.4 s⁻¹	0.66 ± 0.05 s⁻¹	20.5 ± 0.6 s⁻¹	0.86 ± 0.05 s⁻¹	20.6 ± 1.1 s⁻¹	1.01 ± 0.13 s⁻¹	0.133 ± 0.010 µM⁻¹ min⁻¹	% Ib (percentage blockage) ([1]; NMP 300 μM in cis, +200 mV, listed as C): 7.1 ± 0.2%
Nc1nc2c(ncn2[C@@H]2O[C@H](COP(=O)(O)O)[C@@H](O)[C@H]2O)c(=O)[nH]1 [GMP, guanosine-5′-monophosphate]	No binding events were observed	11.5 ± 0.9 s⁻¹	0.02 ± 0.07 s⁻¹	10.6 ± 1.4 s⁻¹	0.50 ± 0.12 s⁻¹	11.8±0.2%	3.02 ± 0.13 pA	96.3 ± 10.4 ms	1473.1 ± 44.4 ms	10.5 ± 1.1 s⁻¹	0.68 ± 0.02 s⁻¹	10.2 ± 0.2 s⁻¹	0.83 ± 0.04 s⁻¹	11.4 ± 1.3 s⁻¹	1.00 ± 0.04 s⁻¹	0.136 ± 0.004 µM⁻¹ min⁻¹	% Ib (percentage blockage) ([1]; NMP 300 μM in cis, +200 mV, listed as G): 11.8 ± 0.2%
O=c1ccn([C@@H]2O[C@H](COP(=O)(O)O)[C@@H](O)[C@H]2O)c(=O)[nH]1 [UMP, uridine-5′-monophosphate]	No binding events were observed	7.8 ± 0.9 s⁻¹	0.28 ± 0.08 s⁻¹	7.4 ± 1.4 s⁻¹	0.36 ± 0.02 s⁻¹	8.64±0.09%	2.14 ± 0.06 pA	130.3 ± 14.8 ms	2097.9 ± 474.7 ms	7.7 ± 0.9 s⁻¹	0.49 ± 0.08 s⁻¹	8.2 ± 0.4 s⁻¹	0.56 ± 0.11 s⁻¹	8.7 ± 0.4 s⁻¹	0.68 ± 0.09 s⁻¹	0.097 ± 0.014 µM⁻¹ min⁻¹	% Ib (percentage blockage) ([1]; NMP 300 μM in cis, +200 mV, listed as U): 8.64 ± 0.09%

Source: patent US20240418701A1, “SINGLE MOLECULE IDEN[…] A REACTIVE HETERO-NANOPORE” (priority 2021, published 2024)
